Among the data in article PMC10896213, “Identification of the KIF18A alpha-4 helix as a therapeutic target for chromosomally unstable tumor cells” (Frontiers in Molecular Biosciences, 2023) are IC50 values, retold here.

The assay has as its target T1, KIF18A (Homo sapiens, UniProt Q8NI77).
T1 construct: KIF18A (1−417); with pig microtubules (tubulin)
T1 sequence (Q8NI77 1-417): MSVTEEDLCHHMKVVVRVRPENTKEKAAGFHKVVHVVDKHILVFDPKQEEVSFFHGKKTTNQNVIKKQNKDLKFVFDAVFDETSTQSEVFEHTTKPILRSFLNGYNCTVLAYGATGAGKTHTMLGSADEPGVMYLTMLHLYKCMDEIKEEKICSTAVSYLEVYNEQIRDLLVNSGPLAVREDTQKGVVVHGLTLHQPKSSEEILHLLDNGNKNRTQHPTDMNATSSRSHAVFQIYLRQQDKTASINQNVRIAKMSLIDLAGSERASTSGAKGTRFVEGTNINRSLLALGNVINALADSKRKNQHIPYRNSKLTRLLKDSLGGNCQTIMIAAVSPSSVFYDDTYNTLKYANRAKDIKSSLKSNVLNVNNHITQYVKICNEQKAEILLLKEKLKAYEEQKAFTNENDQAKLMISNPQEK
As to the kind of experiment: microtubule-stimulated ATPase assay (ADP-Glo). The class given is biochemical.

A word on the IC50: it is the point on the concentration scale where inhibition reaches its midpoint. Higher therefore signals weaker potency in that assay. `Cc1cc(NC(=O)c2cnc(NS(=O)(=O)CCO)cc2N2CCC3(CC2)CC3)nc(N2CCC(F)(F)CC2)n1` [Compound 3] displayed a concentration for half-maximal inhibition (IC50) of 8.2 nM.
